For eight compounds, TGI results are on record in PubChem BioAssay (NCI).

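48-hour exposure; five concentrations; linearly interpolated endpoints. TGI marks complete inhibition of growth.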

Test systems include OVCAR-4 ovarian; UO-31 renal; LOX IMVI melanoma; NCI-H23 lung; HCT-116 colon; KM12 colon; EKVX NSCLC; IGROV1 ovarian; M14 melanoma; ACHN renal; NCI-H522 lung; SN12C renal; MALME-3M melanoma; NCI-H460 lung; COLO 205 colon; SK-MEL-5 melanoma; SR leukemia.
Test in all cases: NCI anticancer screen, dose series, 48 h

Regarding `O=S(=O)(N1CCCCN(S(=O)(=O)C(F)(F)F)CCCN(S(=O)(=O)C(F)(F)F)CCCCN(S(=O)(=O)C(F)(F)F)CCCN(S(=O)(=O)C(F)(F)F)CCCCN(S(=O)(=O)C(F)(F)F)CCCN(S(=O)(=O)C(F)(F)F)CCCCN(S(=O)(=O)C(F)(F)F)CCC1)C(F)(F)F`, the TGI with OVCAR-4 ovarian is > 100 µM; in the experiment with UO-31 renal, > 31.6 µM; with LOX IMVI melanoma, > 31.6 µM; in the experiment with NCI-H23 lung, > 31.6 µM; in the experiment on HCT-116 colon, > 31.6 µM; in the experiment on KM12 colon, > 31.6 µM. In addition, the TGI in the experiment with EKVX NSCLC, with IGROV1 ovarian, with M14 melanoma, in the experiment with ACHN renal, in the experiment with NCI-H522 lung and in the experiment on SN12C renal was > 31.6 µM in each case. Also, the TGI in the experiment on MALME-3M melanoma is > 31.6 µM; with NCI-H460 lung it was > 31.6 µM; in the experiment on COLO 205 colon, > 100 µM; in the experiment with SK-MEL-5 melanoma, > 31.6 µM.

Take `CC1(C)OC2C(O1)[C@H]1OC(C(Cl)(Cl)Cl)=N[C@H]1C(I)[C@H]2N1C(=O)c2ccccc2C1=O` (some centres not stated): the TGI in the experiment with OVCAR-4 ovarian was 55.5 µM; in the experiment on LOX IMVI melanoma, > 100 µM; in the experiment on NCI-H23 lung it was > 100 µM; with HCT-116 colon it was > 100 µM; in the experiment with KM12 colon, > 100 µM; in the experiment on SR leukemia, 65.4 µM. Further, the TGI was > 100 µM in the experiment on EKVX NSCLC; 61.7 µM with IGROV1 ovarian; > 100 µM in the experiment on M14 melanoma; > 100 µM in the experiment with ACHN renal; 74.5 µM in the experiment with NCI-H522 lung; > 100 µM with SN12C renal. Besides, the TGI in the experiment on NCI-H460 lung, in the experiment with COLO 205 colon and with SK-MEL-5 melanoma was > 100 µM each time.

With `C#C[C@@H](OC(=O)c1ccc([N+](=O)[O-])cc1)[C@@H]1C[C@H]2O[C@@H]([C@H](C/C=C/CC)OC(=O)c3ccc([N+](=O)[O-])cc3)C[C@H]2O1`, the TGI in the experiment on OVCAR-4 ovarian, with UO-31 renal, with LOX IMVI melanoma, in the experiment with NCI-H23 lung, in the experiment with HCT-116 colon and with KM12 colon was > 100 µM each time. The TGI in the experiment on EKVX NSCLC, in the experiment on IGROV1 ovarian, with M14 melanoma, in the experiment with ACHN renal, in the experiment on NCI-H522 lung and with SN12C renal was > 100 µM each time. Also, the TGI in the experiment on MALME-3M melanoma, in the experiment on NCI-H460 lung, in the experiment on COLO 205 colon and with SK-MEL-5 melanoma was > 100 µM throughout.

In the case of `COc1cc(CO)cc2c1[nH]c1ccccc12`, the TGI with OVCAR-4 ovarian, in the experiment on UO-31 renal, in the experiment with LOX IMVI melanoma, in the experiment with HCT-116 colon, in the experiment with KM12 colon and with SR leukemia was > 25 µM each time. Further, the TGI in the experiment with IGROV1 ovarian, with M14 melanoma, in the experiment on ACHN renal, in the experiment on NCI-H522 lung, in the experiment on SN12C renal and in the experiment with MALME-3M melanoma was > 25 µM throughout. Moreover, the TGI in the experiment with NCI-H460 lung, in the experiment on COLO 205 colon and with SK-MEL-5 melanoma was > 25 µM in each case.

For the compound `O=C(c1nc2ccc(Cl)cc2[nH]c1=O)C(O)c1ccco1` (configuration not stated), the TGI with OVCAR-4 ovarian, with UO-31 renal, in the experiment on LOX IMVI melanoma, in the experiment on NCI-H23 lung, in the experiment with HCT-116 colon and in the experiment with EKVX NSCLC was > 100 µM in each case. Besides, the TGI was > 100 µM with IGROV1 ovarian; > 100 µM in the experiment with M14 melanoma; > 100 µM with ACHN renal; 32.2 µM with NCI-H522 lung; > 100 µM in the experiment on MALME-3M melanoma; > 100 µM in the experiment on NCI-H460 lung. In addition, the TGI with COLO 205 colon and with SK-MEL-5 melanoma was > 100 µM in each case.

Regarding `CC(=O)NC(CCCCN(Cc1ccccc1)C(=O)N(C)N=O)C(=O)NCc1ccccc1` (configuration not stated), the TGI with OVCAR-4 ovarian, in the experiment on UO-31 renal, with LOX IMVI melanoma, in the experiment with NCI-H23 lung, in the experiment with HCT-116 colon and in the experiment with KM12 colon was > 100 µM in each case. Besides, the TGI with EKVX NSCLC, in the experiment with IGROV1 ovarian, in the experiment with M14 melanoma, in the experiment with ACHN renal, in the experiment on NCI-H522 lung and in the experiment with SN12C renal was > 100 µM each time. Also, the TGI with MALME-3M melanoma, in the experiment with NCI-H460 lung, with COLO 205 colon and with SK-MEL-5 melanoma was > 100 µM in each case.

For the compound `COc1ccc([C@H]2[C@@H]3CCc4ccccc4C3=NN2C(N)=S)cc1OC`, the TGI with OVCAR-4 ovarian, in the experiment on UO-31 renal, in the experiment on LOX IMVI melanoma, in the experiment on NCI-H23 lung, in the experiment with HCT-116 colon and in the experiment on KM12 colon was > 100 µM throughout. In addition, the TGI is 72.4 µM in the experiment on SR leukemia; > 100 µM in the experiment on EKVX NSCLC; > 100 µM in the experiment on IGROV1 ovarian; > 100 µM with M14 melanoma; > 100 µM in the experiment on ACHN renal; 59.7 µM in the experiment with NCI-H522 lung. The TGI with SN12C renal, in the experiment with MALME-3M melanoma and in the experiment on NCI-H460 lung was > 100 µM in each case.

For the compound `CC(=O)O[C@H]1C(=O)[C@@]2(C)[C@H]([C@H](OC(=O)c3ccccc3)[C@]3(O)C[C@H](OC(=O)[C@H](O)[C@@H](NC(=O)C(C)(O)C(C)O)c4ccccc4)C(C)=C1C3(C)C)[C@]1(OC(C)=O)CO[C@@H]1C[C@@H]2O` (some centres not stated), the TGI in the experiment with OVCAR-4 ovarian was > 50 µM; in the experiment on UO-31 renal it was > 50 µM; in the experiment on LOX IMVI melanoma, > 50 µM; in the experiment on NCI-H23 lung, > 50 µM; in the experiment with SR leukemia, > 15.9 µM; in the experiment on EKVX NSCLC, > 50 µM. Further, the TGI is > 50 µM in the experiment with IGROV1 ovarian; > 50 µM with M14 melanoma; > 50 µM with ACHN renal; 0.341 µM with NCI-H522 lung; > 50 µM in the experiment with SN12C renal; > 50 µM in the experiment on MALME-3M melanoma. The TGI with NCI-H460 lung is > 50 µM; in the experiment on COLO 205 colon, 0.254 µM; in the experiment on SK-MEL-5 melanoma, > 50 µM.
